Test results taken from paper PMC4830539, “Chemical Inhibition of Histone Deacetylases 1 and 2 Induces Fetal Hemoglobin through Activation of GATA2” (PLoS ONE, 2016).

Experiments:
[1] = molecular target: HDAC2 (Homo sapiens, UniProt Q92769); assay: In vitro biochemical HDAC enzyme assay; design: purchased BPS Biosciences; conditions: 24 hours pre-incubation; mean, n = 4
Procedure: In vitro biochemical assays were performed as described previously. Specifically, drugs were dissolved and diluted in assay buffer (50 mM HEPES, pH 7.4, 100 mM KCl, 0.001% Tween-20, 0.05% BSA, and 20 μM Tris (2-carboxyethyl)phosphine) to 6-fold the final concentration. HDAC enzymes (BPS Biosciences) were diluted to 1.5-fold of the final concentration in assay buffer and pre-incubated with ACY-957 for 24 hours before the addition of the substrate. The amount of substrate (acetyl-lysine tripeptide substrate for HDAC1, HDAC2, HDAC3, and HDAC6 or trifluoroacetyl-lysine tripeptide for HDAC4, HDAC5, HDAC7, HDAC8, and HDAC9) used for each enzyme was equal to the Michaelis constant (Km), as determined by a titration curve. Substrate was diluted in assay buffer to 6-fold the final concentration with 0.3 μM sequencing grade trypsin (Sigma-Aldrich). The substrate/trypsin mix was added to the enzyme/compound mix and the plate was shaken for 5 seconds and then placed into a SpectraMax M5 microtiter plate reader (Molecular Devices). The enzymatic reaction was monitored over 30 minutes for release of […] after deacetylation of the lysine side chain in the peptide substrate, and the linear rate of the reaction was calculated.
ACY-957 was tested against each individual HDAC in an in vitro biochemical assay as previously described. […]

[2] = system: gene expression in BM cells; assay: Gene expression profiling (Affymetrix GeneChip) of erythroid progenitors; type: cell-based, human
Procedure: BM cells were cultured in CS1 expansion media for 7 days, and then shifted to CS1 differentiation media containing vehicle or 1 μM ACY-957 for 5 days. Total RNA was isolated from cells at day 5 of differentiation using RNeasy Micro Kit with on-column DNase digestion (Qiagen). This experiment was performed in triplicate using cells from three independent donors on separate days to obtain vehicle treated (n = 3) and ACY-957 treated (n = 3) samples for GeneChip analysis. GeneChip sample preparation, hybridization, and data acquisition was performed by the Covance Genomics Laboratory (Seattle, WA) using Affymetrix GeneChip PrimeView™ Human Gene Expression Array according to manufacturer’s protocol. […] For the analysis of HDAC1 or HDAC2 knockdown in erythroblasts, raw gene expression data was downloaded from NCBI GEO website, series GSE22366 [21].
Data analysis was performed using BRB-ArrayTools. GSE60791 and GSE22366 data series were imported and analyzed independently. Raw data CEL files were processed with the robust multi-chip average (RMA) algorithm. Fold changes were derived from the geometric mean of intensity values in each treatment class. In the case of GSE60791, P-values were generated between ACY-957 and vehicle treated samples using a paired t test with random variance model applied. In the case of GSE22366, P-values were generated between luciferase control and HDAC1 or HDAC2 knockdown samples using a two-sample t test with random variance model applied.
Duplicate gene symbols were removed by selecting the probe set with the lowest P-value. Next, these 4 gene sets were appended to the Molecular Signatures Database collection of Chemical and Genetic Perturbations. This database contained approximately 2777 gene sets, each containing at least 15 genes and no more than 10000 genes. Finally, log base 2 mRNA data from ACY-957 or vehicle treated cells was loaded into the publically available GSEA software from the Broad Institute and queried against the database of gene sets described above. ACY-957 phenotype was compared against vehicle phenotype by first collapsing the data set to gene symbols based on maximum probe signal and then using a weighted, signal-to-noise metric for ranking genes. Gene set permutations were performed to generate nominal P-values for each gene set.
We interrogated the mechanism through which HDAC1/2 inhibition induces HBG by performing gene expression profiling on ACY-957 or vehicle treated cells in CS1. Because HDAC inhibition prevented cells from fully upregulating GYPA (Fig 4) we isolated RNA at day 5 of differentiation, a time point prior to the observed differentiation block.

[3] = treatment versus control, 1 μM, day 5

HDAC2, sequence (Q92769 whole entry): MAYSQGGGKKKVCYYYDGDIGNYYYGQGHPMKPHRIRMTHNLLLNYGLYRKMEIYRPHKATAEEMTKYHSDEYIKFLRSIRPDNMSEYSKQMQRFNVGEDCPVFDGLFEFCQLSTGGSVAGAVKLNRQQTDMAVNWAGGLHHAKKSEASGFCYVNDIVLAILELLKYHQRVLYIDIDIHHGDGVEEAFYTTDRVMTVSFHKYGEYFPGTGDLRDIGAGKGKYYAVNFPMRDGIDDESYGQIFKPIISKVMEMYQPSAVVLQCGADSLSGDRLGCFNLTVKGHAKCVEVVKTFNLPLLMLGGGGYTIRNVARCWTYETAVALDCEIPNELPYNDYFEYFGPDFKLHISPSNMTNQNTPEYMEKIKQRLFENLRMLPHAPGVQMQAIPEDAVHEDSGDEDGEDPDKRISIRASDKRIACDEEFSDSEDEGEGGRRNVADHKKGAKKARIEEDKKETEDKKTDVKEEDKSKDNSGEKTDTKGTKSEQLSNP

Work on Nc1ccc(-c2cccs2)cc1NC(=O)c1ccc2nc(N3CCNCC3)ccc2c1 [ACY-957] yielded an IC50 [1] of 18 nM, a BCL11A down-regulated ([2]; GeneChip, 1 μM, day 5) of 1.3 fold and a GATA2 up-regulated ([2]; GeneChip, 1 μM, day 5) of 2.8 fold. The SOX6 down-regulated ([2]; GeneChip, 1 μM, day 5) was 2.5 fold, the “expression of HBG repressors MYB and KLF1” value ([2]; GeneChip, 1 μM, day 5) was “unaffected” and the “GATA2 induced (abstract)” value ([2]; gene expression profiling of erythroid progenitors) was “greater than 3 fold”. The “BCL11A Ratio, candidate gene expression by GeneChip” value [2, 3] was 0.77, the “GATA1 Ratio, candidate gene expression by GeneChip” value [2, 3] was 1.0 and the “GATA2 Ratio, candidate gene expression by GeneChip” value [2, 3] was 2.8. The “KLF1 Ratio, candidate gene expression by GeneChip” value [2, 3] was 0.87, the “MYB Ratio, candidate gene expression by GeneChip” value [2, 3] was 1.1 and the “SOX6 Ratio, candidate gene expression by GeneChip” value [2, 3] was 0.41.
